Tests used:
S. aureus USA300 = assay: In vitro staphyloxanthin production inhibition by NP-16 analogues; type: cell-based, Staphylococcus aureus; conditions: S. aureus USA300, methanol extract OD 450 nm, 300 nM to 700 nM
Protocol: Evaluation of NP-16 analogues in Staphyloxanthin production
The in vitro pigment inhibition studies were performed by S. aureus USA300 cultured in BHI with or without the presence of inhibitor compounds at 37° C. and 250 rpm for 36-48 hours. The bacteria were washed twice with PBS prior to the staphyloxanthin purification with methanol. The OD of the extracts were monitor at 450 nm using DTX880 multi-plate reader spectrophotometer (Beckman). The concentration range tested for the compounds were between 300 nM to 700 nM, and control groups were added with equal volume of DMSO.
The cytotoxicity of NP-16 and some of its analogues was tested against Raw 264.7 cells, and the cell tolerance of each compounds were documented in Table 3. Along with the in vitro staphyloxanthin production of the NP-16 analogues were being tested, the compounds can exert staphyloxanthin production inhibition. The staphyloxanthin from the overnight-cultured bacteria were extracted with methanol and quantified in via spectrophotometry. The results were presented in relative ratio to NP-16 in both the inhibition ratio as well as the TC50 (concentration for decreasing cell viability by 50%) in Table 3 (sample names correspond to those listed in Table 1).

USA300 = assay: Minimum inhibitory concentration (MIC) test; type: cell-based; conditions: Staphylococcus aureus
Protocol: Minimum Inhibitory Concentration (MIC) Tests
MIC was determined by inoculating 5×10^4 S. aureus cells in 100 μl BHI medium in 96-well plates with a serial dilution of antibiotics.

MDCK cells = assay: Cytotoxic activity on MDCK cells; type: cell-based
S. aureus COL [1] = assay: Hydrogen peroxide susceptibility assay; type: cell-based, Staphylococcus aureus; conditions: grown with NP16 (40 μM); 440 mM H2O2, 1 hr
Protocol: (§1) Hydrogen Peroxide Susceptibility Assay
(§2) S. aureus was grown in BHI with or without NP16 (40 μM). After 2 days, bacteria were washed twice in PBS, diluted to a concentration of 1×10^7 CFUs per 100 μl reaction mixture in a 96-well plate. Hydrogen peroxide (H2O2) in PBS was added to a 440 mM final concentration, and the plate was incubated for 1 hr at 37° C. with shaking. The reaction was stopped by the addition of 1,000 U/ml of exogenous catalase (Sigma-Aldrich, St. Louis, Mo.), and bacterial viability was assessed by plating dilutions on BHI agar plates.

[2] = test system: non-pigmented strain RN6390; assay: Hydrogen peroxide susceptibility assay, non-pigmented strain; type: cell-based, Staphylococcus aureus; conditions: non-pigmented strain RN6390, with or without NP16
Protocol: as §1, §2

S. aureus COL [3] = assay: Bactericidal activity of human polymorphonuclear leukocytes; type: cell-based, Staphylococcus aureus; conditions: NP16-treated COL vs COL
Protocol: Bactericidal Activity of Polymorphonuclear Leukocytes
The killing of S. aureus by human polymorphonuclear leukocytes (PMNs) was determined as previously described, with some modifications. Briefly, PMNs (10^6) were mixed with ˜10^7 opsonized S. aureus bacteria MOI=10 in 24-well tissue culture plates. After centrifuged at 380 g for 8 min, plates were incubated at 37° C. for up to 1.5 h. PMNs were lysed with saponin (20 min on ice) and plated on BHIA plates. The percent survival was calculated by normalized with time zero. Statistics were performed with the Student's t-test (GraphPad Prism).

S. aureus COL [4] = assay: Murine intraperitoneal infection model, liver and spleen CFUs; type: in vivo, BALB/c mice
Protocol: (§3) For other S. aureus sub-type, eight- to ten-week-old female BALB/c mice were injected intraperitoneally (i.p) with 4×10^8 CFUs of early stationary phase S. aureus COL. After 3 d, animals were euthanized, the liver and spleen were isolated, homogenized in PBS, and plated on to obtain viable counts. For the treatment study, mice were randomized into two groups at the start of the experiment and administered, i.p., either 0.35 mg of NP16 or PBS with 5% Tween-80 as a control, twice per day, starting on d −1 to d 2 (a total of eight doses for each). Intraperitoneal challenge with 4×10^8 CFUs of early stationary phases S. aureus COL was performed on d 0. The mice were sacrificed on d 3 for enumeration of bacterial CFUs in liver and spleen homogenates.
(§4) With the same intraperitoneal challenge used in FIGS. 3a, 3b and 3e, one group of mice (n=14) was treated with 0.35 mg of NP16 twice per day (days −1, 0, 1 and 2), and a second group (n=12) with a vehicle control.

[5] = test system: clinical isolate S. aureus strain AE052; assay: Murine intraperitoneal infection model, kidney bacterial loads; type: in vivo, BALB/c mice
Protocol: as §3
For the clinical isolate S. aureus strain AE052, all operations were similar to those used for the COL strain, except 10^8 CFUs of early stationary phase bacteria were used in the infection model, and kidneys were collected for monitoring bacterial loads. Statistics were performed using the Student's t-test (GraphPad Prism).
as §4

[6] = target: T1, 4,4-diapophytoene desaturase (CrtN) (Staphylococcus aureus, UniProt Q99R76); assay: CrtN enzymatic assay; type: biochemical, S. aureus
T1 construct: made in house; host or cells: E. coli Rosetta (DE3)
T1 sequence (Q99R76 whole entry): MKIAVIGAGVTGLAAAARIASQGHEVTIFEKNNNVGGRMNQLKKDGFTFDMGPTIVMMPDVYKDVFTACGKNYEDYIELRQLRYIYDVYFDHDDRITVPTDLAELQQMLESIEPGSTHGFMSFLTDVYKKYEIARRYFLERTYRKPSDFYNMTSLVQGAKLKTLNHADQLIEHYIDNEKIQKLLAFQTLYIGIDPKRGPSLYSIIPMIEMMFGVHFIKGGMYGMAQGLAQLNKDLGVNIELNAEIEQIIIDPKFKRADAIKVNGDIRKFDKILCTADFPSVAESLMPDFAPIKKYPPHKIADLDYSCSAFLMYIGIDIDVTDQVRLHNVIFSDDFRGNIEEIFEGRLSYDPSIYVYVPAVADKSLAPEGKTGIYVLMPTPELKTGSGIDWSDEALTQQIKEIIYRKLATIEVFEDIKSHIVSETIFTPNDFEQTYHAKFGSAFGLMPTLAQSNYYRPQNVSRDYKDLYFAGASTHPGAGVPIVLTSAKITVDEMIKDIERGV
Protocol: crtN Expression, Purification and Enzymatic Assay
CrtN with a histidine-maltose binding protein (MBP) tag was overexpressed in E. coli Rosetta (DE3) cells. A 10 ml overnight culture was transferred into 1 L of LB medium supplemented with 100 μg/ml ampicillin. Induction was carried out with 1 mM IPTG for 12 hours at 16° C. at an OD of 0.6 at 600 nm. The cell lysate was loaded onto a Ni-NTA column, and CrtN was eluted using a 75-ml linear gradient of 0-0.4 M imidazole in 50 mM sodium phosphate buffer, with 400 mM sodium chloride, pH 6.6. The collected fractions were analysed by SDS-PAGE to confirm the peak for MBP-CrtN. The target peak fractions were concentrated and the buffer was exchanged to loading buffer without imidazole using a PD-10 column (GE Healthcare). The collected solution was treated with TEV protease at 4° C. overnight. The protein sample was applied to a maltose column, and the flow-through was collected as native CrtN protein. For enzyme assay, 10 μg of purified CrtN was incubated with 100 μl of 4,4′-diapophytoene liposomes (containing 5 nmol of 4,4′-diapophytoene), 150 μM FAD and buffer II (20 mM phosphate buffer pH 8.0, 100 mM NaCl) in a total volume of 660 μl at 37° C. for 2 h (standard assay). The reaction was stopped by adding 1 volume of CHCl3: MeOH (2:1, v/v). Followed by mixing, the sample was centrifuged at 16,000 g for 10 min. […]

[7] = target: 4,4-diapophytoene desaturase (CrtN) (Staphylococcus aureus, UniProt O07855); conditions: reference [5]; cited from earlier work
4,4-diapophytoene desaturase (CrtN) (Staphylococcus aureus, UniProt O07855), sequence (O07855 whole entry): as the sequence (Q99R76 whole entry) above

| Compound | Relative ratio to NP16 based on inhibition ratio (S. aureus USA300) | MIC (USA300) | effect on the growth of MDCK cells (MDCK cells) | susceptibility to hydrogen peroxide killing (S. aureus COL [1]) | susceptibility to hydrogen peroxide killing [2] | survival in human neutrophils (S. aureus COL [3]) | bacterial counts in the livers and spleens (S. aureus COL [4]; 0.35 mg twice per day i.p. (days -1, 0, 1, 2), 72 hours, vs control group, P<0.01) | decrease in surviving bacteria (S. aureus COL [4]; treatment group infected with COL) | bacterial counts in the kidneys ([5]; 0.35 mg twice per day i.p., 72 hours, vs control group, P<0.001) | mice below the detection threshold (kidneys) ([5]; n=10, versus 2 of 10 in the control group) | decrease in surviving bacteria ([5]; treatment group infected with AE052) | inhibition of CrtN [6] | inhibitor of CrtN, level [7] |
| --- | --- | --- | --- | --- | --- | --- | --- | --- | --- | --- | --- | --- | --- |
| O=C(/C=C/c1ccccc1)Nc1ccc(S(=O)(=O)N2CCCC2)cc1 [NP16, 3-phenyl-N-[4-(1-pyrrolidinylsulfonyl)-phenyl]acrylamide] | 1 | > 500 µM | no effect on the growth of MDCK cells | increase in the susceptibility of the pathogen to hydrogen peroxide killing | susceptibility was similar irrespective of NP16 treatment | COL survived significantly better than RN6390 and NP16-treated COL | significantly lower | 98% | significantly lower | 6 of 10 | 98% | inhibitor for CrtN |  |
| c1ccc(Nc2ccccc2)cc1 [Diphenylamine] |  |  |  |  |  |  |  |  |  |  |  |  | high micromolar level |
